Test results reported in patent US7718687B2, “Prodrugs of mitotic kinesin inhibitors” (Merck Sharp & Dohme Corp.,, priority 2004, dated 2010).

Target: T1, human KSP motor domain (KSP(367H)) (Homo sapiens, UniProt P52732)
T1 construct: were used to amplify the motor domain and the neck linker region; made in house; host or cells: E. coli BL21 (DE3), vector pRSETa
T1 sequence (P52732 18-359 limits assumed): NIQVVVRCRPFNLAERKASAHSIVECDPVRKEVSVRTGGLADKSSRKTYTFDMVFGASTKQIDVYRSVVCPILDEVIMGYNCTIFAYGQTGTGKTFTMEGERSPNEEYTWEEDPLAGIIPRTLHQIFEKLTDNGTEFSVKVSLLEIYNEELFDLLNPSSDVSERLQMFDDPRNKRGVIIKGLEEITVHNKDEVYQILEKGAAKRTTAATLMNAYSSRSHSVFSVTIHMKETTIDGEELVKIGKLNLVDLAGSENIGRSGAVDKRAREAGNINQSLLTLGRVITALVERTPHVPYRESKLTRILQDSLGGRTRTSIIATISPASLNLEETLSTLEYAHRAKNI
Test: Kinesin ATPase In Vitro Assay
Format: biochemical
Conditions: enantiomers of 1-5 resolved on Chiralpak AD; assay not stated
Source text: I. Kinesin ATPase In Vitro Assay
Cloning and Expression of Human Poly-Histidine Tagged KSP Motor Domain (KSP(367H))
Plasmids for the expression of the human KSP motor domain construct were cloned by PCR using a pBluescript full length human KSP construct (Blangy et al., Cell, vol. 83, pp 1159-1169, 1995) as a template. The N-terminal primer 5′-[…] (SEQ.ID.NO.: 1) and the C-terminal primer 5′-[…] […] (SEQ.ID.NO.: 2) were used to amplify the motor domain and the neck linker region. The PCR products were digested with AseI and XhoI, ligated into the NdeI/XhoI digestion product of pRSETa (Invitrogen) and transformed into E. coli BL21 (DE3).
Cells were grown at 37° C. to an OD600 of 0.5. […]
The kinesin motor domain is incubated with microtubules, 1 mM ATP (1:1 MgCl2: Na-ATP), and compound at 23° C. in buffer containing 80 mM K-HEPES (pH 7.0), 1 mM EGTA, 1 mM DTT, 1 mM MgCl2, and 50 mM KCl. […] Free phosphate from the ATP hydrolysis reaction is measured via a quinaldine red/ammonium molybdate assay by adding a […] of quench C (e.g., to a mixture of 40 μl reaction volume+40 μl stop buffer is then added 120 μl quench C). […] Quench C is a 2:1 ratio of quench A:quench B The reaction is incubated for 5-10 minutes at 23° C., and the absorbance of the phospho-molybdate complex is measured at 540 nm.

activity of resolved enantiomer (active / inactive): active
SMILES: CC(=O)N1N=C(c2cc(F)ccc2F)C[C@@]1(CCCO)c1ccccc1 (single isomer, unassigned; isomer 3) [(S) isomer]
